Measurements from publication PMC11601558, “SLC6A19 inhibition facilitates urinary neutral amino acid excretion and lowers plasma phenylalanine” (JCI Insight, 2024).
Values joined by “and” are separate entries in the source; they are usually repeats but may differ in a detail not shown here. Identical values can stand only once.

System: Pah^enu2 mice
Assay: Urine amino acid excretion in Pah^enu2 mice after JN-170
Type: in vivo, mouse
Parameters: urine Gln excretion / urine Phe excretion: unit not given here
Settings: for 12-hour urine Phe excretion (Fig 3c): individual Pah^enu2 mice
Experimental: Male homozygous BTBR-Pah<enu2>/J (Pah^enu2) aged 10–13 weeks were purchased from Jackson Laboratory (no. 002232). Immediately before dosing, each animal’s bladder was manually emptied and a plasma sample was drawn. Animals were dosed by oral gavage with vehicle (10% DMSO, 20% 2-hydroxypropyl-β-cyclodextrin [Sigma-Aldrich]) followed by a 1-week washout prior to dosing with JN-170 at doses ranging from 50 to 250 mg/kg. Following dosing with vehicle or JN-170, animals were individually placed in metabolic cages to collect urine samples. After collection of each urine sample, cages were rinsed with ultra-pure water to recover residual analytes. Blood samples were collected predose as well as 1, 3, 8, 12, and 24 hours after dosing with vehicle or JN-170 into tubes with EDTA as a […], and plasma was separated by centrifuging samples at 2,200g for 5 minutes at 4°C. Throughout the study, mice had access to food and water ad libitum. Plasma and urine samples were stored at –80°C until processing.Ten-week-old male WT C57Bl/6J animals (Si Bei Fu Laboratory Animal Technology Co. Ltd.) were dosed either with vehicle or 50–250 mg/kg JN-170 by oral gavage and blood and urine samples were collected as described. All animals had unrestricted access to food and water during the study; C57Bl/6J were kept on rodent maintenance diet from Beijing Keao Xieli, Pah^enu2 mice were kept on Teklad diet no. T.2018.
Urine and cage-wash samples were vortexed and centrifuged at 3,700g for 5 minutes to remove any solid precipitate. Neat samples and samples diluted 1:10 in water were further diluted 1:10 in crash solution (75% acetonitrile 25% methanol, 0.1% formic acid, 5 mM heavy labeled amino acids) to precipitate proteins. Samples were centrifuged at 3,700g for 5 minutes before the supernatant was transferred into an injection plate. Urine amino acid analysis was carried out using a quadrupole time of flight (QToF) LC-mass spectrometry (QToF-LC-MS) bioanalytical method. A standard curve of 1 mM down to 0.06 μM was used as the calibration curve to which samples were quantified. The amino acid concentrations were calculated with a 1/×2 linear regression over a concentration range of 60 nM to 1,000 μM of the individual amino acids. An Agilent QToF 6545 was operated in an accurate mass full scan range of 100–1,700 m/z positive ions formed by electrospray ionization with a normal phase HILIC chromatographic method. An Agilent InfinityLab Poroshell 120 HILIC-Z, 2.1 × 150 mm, 2.7 μm was used as the analytical column with 10 mM Ammonium Acetate in 0.1% FA as mobile phase A and 10 mM Ammonium Acetate in 95% ACN, 0.1% FA as mobile phase B. At a flow rate of 0.25 mL/min, the binary gradient increased from an initial 100% phase B to 90% phase B over 3 minutes. After 1.5 minutes, the gradient ramped to 80% mobile phase B. At 5.6 minutes into the gradient, mobile phase B ramped from 60% to 0% and held for 2 minutes before returning to initial conditions at 7.5 minutes. The gradient was stopped at 10 minutes.Total urine amino acid amounts were calculated by multiplying urine amino acid concentrations by the urine volume and adding the amount of amino acid recovered in the cage wash, which was calculated by multiplying the cage wash amino acid concentration by the cage wash volume.

[1] = Fig S3b, Pahenu2 mice, individual animals
[2] = Pah^enu2 mice, 0–3 hours after 200 mg/kg

For `N#Cc1ccc(-c2noc([C@]3(C(F)(F)F)CCN(C(=O)NCCC4(N)CC4)C3)n2)cc1` [JN-170], which “urinary excretion of Phe, Pah^enu2 vs WT mice” value (0–3 hours after 200 mg/kg) is on record?
Its value is “approximately 60 fold”.

What about the “change in 12 hour urine Arg excretion (Fig 3b)” value (50 mg/kg vs vehicle) of the same compound?
The value was 0.3802 log FC.

What about the “change in 12 hour urine Gln excretion (Fig 3b)” value (50 mg/kg vs vehicle) of the same compound?
The value was 1.423 log FC.

And the “change in 12 hour urine Glu excretion (Fig 3b)” value (50 mg/kg vs vehicle)?
Its value is 0.4771 log FC.

What about the “change in 12 hour urine His excretion (Fig 3b)” value (50 mg/kg vs vehicle) of the same compound?
The value was 1.279 log FC.

What about the “change in 12 hour urine Lys excretion (Fig 3b)” value (50 mg/kg vs vehicle) of the same compound?
The value was 0.2248 log FC.

And the “change in 12 hour urine Met excretion (Fig 3b)” value (50 mg/kg vs vehicle)?
Its value is 0.6756 log FC.

And the “change in 12 hour urine Phe excretion (Fig 3b)” value (50 mg/kg vs vehicle)?
Its value is 1.34 log FC.

What about the “change in 12 hour urine Pro excretion (Fig 3b)” value (50 mg/kg vs vehicle) of the same compound?
Its value is -0.2483 log FC.

And the “change in 12 hour urine Ser excretion (Fig 3b)” value (50 mg/kg vs vehicle)?
The value was 0.9904 log FC.

What about the “change in 12 hour urine Thr excretion (Fig 3b)” value (50 mg/kg vs vehicle) of the same compound?
Its value is 1.084 log FC.

What about the “change in 12 hour urine Trp excretion (Fig 3b)” value (50 mg/kg vs vehicle) of the same compound?
Its value is 1.144 log FC.

What about the “change in 12 hour urine Tyr excretion (Fig 3b)” value (50 mg/kg vs vehicle) of the same compound?
The value was 1.331 log FC.

What about the “12-hour urine Phe excretion (Fig 3c)” value (50 mg/kg) of the same compound?
The value was 2329 µg and 2669 µg and 1215 µg and 2142 µg and 1931 µg and 2386 µg.

What about the “change in 12 hour urine Arg excretion (Fig 3b)” value (100 mg/kg vs vehicle) of the same compound?
The value was 0.4771 log FC.

And the “change in 12 hour urine Gln excretion (Fig 3b)” value (100 mg/kg vs vehicle)?
Its value is 2.5092 log FC.

What about the “change in 12 hour urine Glu excretion (Fig 3b)” value (100 mg/kg vs vehicle) of the same compound?
Its value is 0.7782 log FC.

What about the “change in 12 hour urine His excretion (Fig 3b)” value (100 mg/kg vs vehicle) of the same compound?
Its value is 2.097 log FC.

What about the “change in 12 hour urine Lys excretion (Fig 3b)” value (100 mg/kg vs vehicle) of the same compound?
The value was 0.583 log FC.

And the “change in 12 hour urine Met excretion (Fig 3b)” value (100 mg/kg vs vehicle)?
The value was 1.421 log FC.

What about the “change in 12 hour urine Phe excretion (Fig 3b)” value (100 mg/kg vs vehicle) of the same compound?
Its value is 1.508 log FC.

What about the “change in 12 hour urine Pro excretion (Fig 3b)” value (100 mg/kg vs vehicle) of the same compound?
Its value is 0.2706 log FC.

And the “change in 12 hour urine Ser excretion (Fig 3b)” value (100 mg/kg vs vehicle)?
The value was 1.62 log FC.

What about the “change in 12 hour urine Thr excretion (Fig 3b)” value (100 mg/kg vs vehicle) of the same compound?
Its value is 1.727 log FC.

What about the “change in 12 hour urine Trp excretion (Fig 3b)” value (100 mg/kg vs vehicle) of the same compound?
Its value is 1.687 log FC.

What about the “change in 12 hour urine Tyr excretion (Fig 3b)” value (100 mg/kg vs vehicle) of the same compound?
The value was 1.929 log FC.

And the “12-hour urine Phe excretion (Fig 3c)” value (100 mg/kg)?
Its value is 3398 µg and 3162 µg and 4227 µg and 2980 µg and 2439 µg and 2425 µg.

What about the “12-hour urinary Phe excretion, mean ± SD” value (200 mg/kg) of the same compound?
The value was 4,170 ± 1505 μg.

And the “change in 12 hour urine Arg excretion (Fig 3b)” value (200 mg/kg vs vehicle)?
The value was 0.4472 log FC.

What about the “change in 12 hour urine Gln excretion (Fig 3b)” value (200 mg/kg vs vehicle) of the same compound?
The value was 2.528 log FC.

What about the “change in 12 hour urine Glu excretion (Fig 3b)” value (200 mg/kg vs vehicle) of the same compound?
Its value is 0.7559 log FC.

And the “change in 12 hour urine His excretion (Fig 3b)” value (200 mg/kg vs vehicle)?
The value was 2.089 log FC.

What about the “change in 12 hour urine Lys excretion (Fig 3b)” value (200 mg/kg vs vehicle) of the same compound?
Its value is 0.6206 log FC.

What about the “change in 12 hour urine Met excretion (Fig 3b)” value (200 mg/kg vs vehicle) of the same compound?
Its value is 1.349 log FC.

And the “change in 12 hour urine Phe excretion (Fig 3b)” value (200 mg/kg vs vehicle)?
Its value is 1.635 log FC.

What about the “change in 12 hour urine Pro excretion (Fig 3b)” value (200 mg/kg vs vehicle) of the same compound?
The value was 0.1887 log FC.

And the “change in 12 hour urine Ser excretion (Fig 3b)” value (200 mg/kg vs vehicle)?
Its value is 1.594 log FC.

And the “change in 12 hour urine Thr excretion (Fig 3b)” value (200 mg/kg vs vehicle)?
The value was 1.712 log FC.

What about the “change in 12 hour urine Trp excretion (Fig 3b)” value (200 mg/kg vs vehicle) of the same compound?
Its value is 1.74 log FC.

And the “change in 12 hour urine Tyr excretion (Fig 3b)” value (200 mg/kg vs vehicle)?
Its value is 1.783 log FC.

And the “12-hour urine Phe excretion (Fig 3c)” value (200 mg/kg)?
Its value is 3871 µg and 5519 µg and 1571 µg and 5260 µg and 3572 µg and 5225 µg.

What about the “change in 12 hour urine Arg excretion (Fig 3b)” value (250 mg/kg vs vehicle) of the same compound?
The value was 0.6435 log FC.

And the “change in 12 hour urine Gln excretion (Fig 3b)” value (250 mg/kg vs vehicle)?
The value was 2.17 log FC.

What about the “change in 12 hour urine Glu excretion (Fig 3b)” value (250 mg/kg vs vehicle) of the same compound?
Its value is 0.7482 log FC.

And the “change in 12 hour urine His excretion (Fig 3b)” value (250 mg/kg vs vehicle)?
Its value is 1.862 log FC.

And the “change in 12 hour urine Lys excretion (Fig 3b)” value (250 mg/kg vs vehicle)?
The value was 0.7733 log FC.

And the “change in 12 hour urine Met excretion (Fig 3b)” value (250 mg/kg vs vehicle)?
The value was 1.454 log FC.

What about the “change in 12 hour urine Phe excretion (Fig 3b)” value (250 mg/kg vs vehicle) of the same compound?
Its value is 1.613 log FC.

What about the “change in 12 hour urine Pro excretion (Fig 3b)” value (250 mg/kg vs vehicle) of the same compound?
The value was 0.0877 log FC.

What about the “change in 12 hour urine Ser excretion (Fig 3b)” value (250 mg/kg vs vehicle) of the same compound?
Its value is 1.762 log FC.

And the “change in 12 hour urine Thr excretion (Fig 3b)” value (250 mg/kg vs vehicle)?
The value was 1.809 log FC.

And the “change in 12 hour urine Trp excretion (Fig 3b)” value (250 mg/kg vs vehicle)?
Its value is 1.96 log FC.

And the “change in 12 hour urine Tyr excretion (Fig 3b)” value (250 mg/kg vs vehicle)?
The value was 1.972 log FC.

And the “12-hour urine Phe excretion (Fig 3c)” value (250 mg/kg)?
The value was 2655 µg and 3486 µg and 5073 µg and 6377 µg and 3651 µg and 2501 µg.

What about the “urine Gln excretion” value [1] of the same compound?
The value was 800 and 1688 and 2419 and 1193 and 1615.

What about the “urine Phe excretion” value [1] of the same compound?
The value was 1730 and 2424 and 3033 and 1556 and 1834.

What about the “glutamine excreted in urine, mean ± SD” value [2] of the same compound?
Its value is 1,543 ± 606 μg.

What about the “urinary excretion of Phe, mean ± SD” value [2] of the same compound?
The value was 2,115 ± 608 μg.

And the “increase in urinary Phe excretion” value (≥ 200 mg/kg, 12-hour urine, vs vehicle)?
The value was > 40 fold.
